Test results reported in patent US20040023882A1, “PTH derivatives resistant to skin proteases” (priority 2002, published 2004).

Legend:
[1] = in vivo; cited from earlier work
[2] = type: in vitro ADME, hairless guinea pig
Method: Aliquots (100 μg) of peptide were incubated at 37° C. with skin extract (1 mL) over the indicated periods of time. The remaining peptide was separated and quantified by HPLC. The data represent averages of duplicate experiments;
The incubation of peptides (PTH(1-34), left panel and PTH(1-34) amide, right panel) with skin extracts, over the indicated times, was conducted as described in Example 2. Fractions containing the peaks were collected, lyophilized and the masses were determined by MALDI-TOF.
Hairless guinea pig skin extracts (1 mL aliquots) were prepared from samples of plasma and skin extracts, respectively, and stored at about −20° C. Stock solutions of hPTH(1-34), hPTH(1-34)NH2, hPTH (1-34)NH-propyl, and hPTH (1-34)NH-phenylpropyl were prepared in HPLC-grade water to achieve a concentration of 10 mg of peptide/mL. Aliquots of skin extracts (1 ml) were incubated at 37° C. for 10 minutes prior to the addition of peptide (100 μg; 10 μL stock solution) or water (10 μL) (control). […]
The lyophilized samples were resuspended in 200 μL of 0.1 N acetic acid and centrifuged at 13,000 g for 15 minutes at room temperature. […] Fractions containing the metabolites of PTH derivatives were collected, concentrated by lyophilization and their masses determined by MALDI-TOF MS (using Voyager-DE Perseptive Biosystems according to the manufacture's procedure).

Substance	potency in anabolic actions on the bone relative to PTH(1-34) [1]	stimulation of resorption markers [1]	site of degradation by skin proteases [2]
PTH (1-31)	as potent as PTH(1-34)	without stimulating resorption markers	
hPTH(1-34) [PTH (1-34)]			takes place at the carboxyterminal end
